Experimental data published in ChEMBL document CHEMBL1201862, “PubChem BioAssay data set” (2004).
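Five compound concentrations were applied to cells in 96-well plates for 48 hours; endpoints were derived by simple linear interpolation of the resulting dose-response curve. GI50: concentration for 50% inhibition of growth.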 Activity calls are given as the source filed them. No stated cut-off is given here; in the data, active = GI50 up to about 1.1 µM and inactive = higher.

How the values were obtained:
Experiment in all cases: DTP human tumour cell line panel, 48 h
EKVX = system: EKVX
BT-549 = system: BT-549
OVCAR-3 = system: OVCAR-3
Malme-3M = system: Malme-3M
TK-10 = system: TK-10
SNB-19 = system: SNB-19
MOLT-4 = system: MOLT-4
HCT-15 = system: HCT-15

Row | SMILES | GI50 (EKVX) | GI50 (BT-549) | GI50 (OVCAR-3) | GI50 (Malme-3M) | GI50 (TK-10) | GI50 (SNB-19) | GI50 (MOLT-4) | GI50 (HCT-15) [nM]
1 | C=C1C(=O)O[C@H]2/C=C(/C)C3=CC(=O)[C@@](C)(C[C@@H](OC(=O)/C(C)=C\C)C12)O3 (stereo partly drawn) | 1290 nM (inactive) | 1210 nM (inactive) | 769 nM (active) | 387 nM (active) | 649 nM (active) | 13200 nM (inactive) |  | 
2 | C=C1C(C)C2C(Cc3ccccc3)NC(=O)C23C(OC(C)=O)C=CC(C)(O)C(=O)C(C)C/C=C/C3C1O (stereo not drawn) |  |  |  |  |  |  | 15100 nM (inactive) | 5550
